In patent US10975123B2, “Mutant Akt-specific capture agents, compositions, and methods of using and making” (California Institute of Technology, priority 2014, dated 2021):
“Also recorded” adds a separate entry of the source. Where a SMILES comes first, the peptide text is derived from it. Bridges are numbered along the chain shown (N, C = ends). Roman numbers before positions name the chains, in order. Triazole bridges read from a SMILES are 1,4-linked. Where no end group is shown, it is not given here. [ ]: non-standard residue; d: D form. The star is where a group is joined. Biotin = O=C1N[C@H]2[C@H](CS[C@H]2CCCCC(=O)*)N1; Lys(N3) = [N-]=[N+]=NCCCC[C@H](N)C(=O)O; PEG6 = NCCOCCOCCOCCOCCOCCOCCC(=O)O; dPra = C#CC[C@@H](N)C(=O)O

Experiments:
[1] = biological target: T1, E17K mutant PH Domain (PHD) of Akt1 (Homo sapiens, UniProt P31749, E17K); experiment: Streptavidin-agarose immunoprecipitation (pulldown), E17K; format: binding; conditions: in words
T1 construct: The first 124 N-terminal amino acids from full length Akt1 were used as the PH Domain DNA; made in house; host or cells: E. coli
Experimental: (§1) Four biligand candidates were chosen based on their hydrophobicity and sequence homology using principal component analysis (FIG. 25). Biligands were synthesized by coupling the 2° ligand onto Rink Amide Resin on the Titan peptide synthesizer. The amide group on the end of the Lys(N3) was capped by shaking the resin with 2 mL acetic anhydride, 2 mL NMP and 0.5 mL DIEA for 3×10 minutes, then washed with NMP. FMOC-Propargylglycine-Otbu (Pra) was clicked onto the Lys(N3) on the 2° ligand by incubating 2 eq of the Pra amino acid with 2 eq CuI and 2 eq ascorbic acid with 1 eq azide on resin in 20% piperidine/NMP for 3 hours. The resin was washed 5×4 mL with a chelating solution of 1 g sodium diethyldithiocarbamate in 20 mL NMP and 1 mL DIEA. The anchor was then built onto the 2° ligand on bead, and an N-terminal PEG5-biotin tag were added. Assays were performed exactly as for the anchor ligands, except for two key differences. The biligand assays were done with 6 ug of GST-tagged PHD protein, instead of the untagged PHD that was used in the anchor pulldowns. The pull-downs were also conducted out of 1% serum in 1×TBS, as opposed to just 1×TBS.
(§2) Pulldown assays were done on Streptavidin Agarose resin from Invitrogen. The resin was incubated with N-terminal biotinylated anchor peptide candidates identified via the ClusterLigand sequence analysis. The anchor candidate coated beads were then incubated with either the wildtype or mutant protein to compare the selectivity of the ligands, as well as the binding ability. The bound protein was eluted and western blotted to compare the amount of protein present for each sample.
(§3) Relative protein band sizes were analyzed to compare binding between the anchor candidates and were used to determine selectivity for either wildtype or mutant PH Domain (FIG. 11). […] Both of these ligands look fairly selective for their respective PH Domain.

[2] = biological target: T2, wildtype PH Domain (PHD) of Akt1 (Homo sapiens, UniProt P31749); experiment: Streptavidin-agarose immunoprecipitation (pulldown), WT; format: binding; conditions: in words
T2 construct: The first 124 N-terminal amino acids from full length Akt1 were used as the PH Domain DNA; made in house; host or cells: E. coli
Experimental: as §1, §2, §3

[3] = biological target: T3, E17K 33-mer fragment (6His-tagged) (Homo sapiens, UniProt P31749, E17K/H13K); experiment: HPLC-detected immunoprecipitation (pulldown), E17K 33-mer; format: binding; conditions: 50 μM epitope, overnight 4° C., guanidine elution, in words
T3 construct: made in house; host or cells: chemical synthesis (Fmoc SPPS)
T3 sequence (P31749 1-33 H13K/E17K limits assumed): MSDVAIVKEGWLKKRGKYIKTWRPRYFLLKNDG
From the text: The label-modified yleaf (SEQ ID NO: 43) peptide (FIG. 2a and FIG. 12) was subjected to a variety of binding assays against the synthesized WT and E17K 33-mer PHD fragments prepared without the biotin label and alkyne click handle. First, the yleaf (SEQ ID NO: 43) peptide was used in immunoprecipitation assays to pull-down either the WT or E17K mutant 6His-tagged (SEQ ID NO: 4) 33-mer peptide fragments (FIGS. 13 and 14), as opposed to the full-length proteins that were used to initially validate the candidates. Typical immunoprecipitation assays involve western blotting to estimate the amount of protein binding, but 33-mer peptide fragments are not easily quantified on a blot. Because of this, the amount of peptide epitope precipitated in these assays was quantified via injection on an analytical HPLC. These assays further confirmed preferential yleaf (SEQ ID NO: 43) ligand binding to the E17K 33-mer epitope relative to the WT epitope (FIG. 15).
Pulldown assays with the biotinylated anchor and his-tagged 33-mer epitope were performed to verify epitope targeting. […] Because small peptide fragments like the 33-mer epitope are difficult to transfer to and detect on the nitrocellulose membrane as for a traditional Western blot, the amount of binding in these assays was detected via HPLC. […]

[4] = biological target: T4, E17K GST-PH Domain (E17K Akt1) (Homo sapiens, UniProt P31749, E17K); experiment: Full curve ELISA, immobilized ligand, E17K protein; format: binding; conditions: in words
T4 construct: The first 124 N-terminal amino acids from full length Akt1 were used as the PH Domain DNA; GST (N); thrombin cleavage site (C); 6His (C); made in house; host or cells: E. coli BL21-DE3-pLys
Experimental: The full curve ELISAs were obtained using streptavidin coated ELISA plates (Pierce). The ligands—anchor, biligand, triligand and “eflya” scrambled anchor peptide blank—were laid down at a concentration of 1 μM for one hour. Two lanes of each ligand were used on the plate for both proteins—WT and E17K GST-PH Domain. The plates were blocked with 5% BSA for two hours. Dilutions of both WT and E17K GST-PH Domain proteins were made in 0.5% BSA in 1×TBS starting from 1 μM-0.5 nM by serially diluting 1:2 down a series of 8 samples. For each ligand, a no protein blank was also used. The proteins were incubated with the blocked plate for one hour, washed 3× with 1×TBST+0.5% BSA and tapped dry, then detected with a 1:10,000 dilution of an HRP conjugated anti-GST pAb. The plate was again washed 3× with 1×TBST and tapped dry. It was developed with a 1:1 solution of TMB substrate and development was stopped with 1M H2SO4 and read on a plate reader.

[5] = biological target: T5, WT GST-PH Domain (Akt1) (Homo sapiens, UniProt P31749); experiment: Full curve ELISA, immobilized ligand, WT protein; format: binding; conditions: in words
T5 construct: The first 124 N-terminal amino acids from full length Akt1 were used as the PH Domain DNA; GST (N); thrombin cleavage site (C); 6His (C); made in house; host or cells: E. coli BL21-DE3-pLys
Experimental: The full curve ELISAs were obtained using streptavidin coated ELISA plates (Pierce). The ligands—anchor, biligand, triligand and “eflya” scrambled anchor peptide blank—were laid down at a concentration of 1 μM for one hour. Two lanes of each ligand were used on the plate for both proteins—WT and E17K GST-PH Domain. The plates were blocked with 5% BSA for two hours. Dilutions of both WT and E17K GST-PH Domain proteins were made in 0.5% BSA in 1×TBS starting from 1 μM-0.5 nM by serially diluting 1:2 down a series of 8 samples. For each ligand, a no protein blank was also used. The proteins were incubated with the blocked plate for one hour, washed 3× with 1×TBST+0.5% BSA and tapped dry, then detected with a 1:10,000 dilution of an HRP conjugated anti-GST pAb. The plate was again washed 3× with 1×TBST and tapped dry. It was developed with a 1:1 solution of TMB substrate and development was stopped with 1M H2SO4 and read on a plate reader. The curves in FIG. 4B were plotted by normalizing the signal by the blank wells, and were fitted to a Hill function in GraphPad using a common saturation and slope (Bmax=1.466+/−0.03, h=0.7383+/−0.025).

[6] = biological target: T6, E17K PH Domain binding to PIP3 (Homo sapiens, UniProt P31749, E17K); experiment: PIP3 agarose inhibition assay, E17K; format: biochemical; conditions: ligand 2.38 μM (10x protein), protein 234 nM, western blot, in words
T6 construct: 2 μg of either wildtype or mutant PH Domain-GFP protein (234 nM); made in house; host or cells: HEK-293-6E (used as cell lysate, not purified)
From the text: The yleaf ligand, the biligand, and the triligand were all tested for their ability to block the E17K PHD binding with PIP3. For this test, PIP3-coated resin (Echelon Biosciences) was used to mimic the PHD interaction with the cell membrane, and could be used to bind the protein as in an immunoprecipitation assay^22. The presence of an effective blocking compound would reduce the ability of the resin to capture the protein, and would thus appear as a diminished signal in the corresponding western blot assay. A control lane containing no capture agent was used to show baseline binding of the protein to the PIP3 resin. […] In an expanded study, we compared the amount of E17K and WT PH domain binding relative to the amount of added triligand (FIG. 5e).
PIP3 Agarose beads (Echelon) were used to detect for the inhibition of PH Domain binding to its substrate, PIP3, upon incubation with the anchor candidate peptide ligands. To test the inhibition of each of the ligands, anchor biligand and triligand, 20 μL of resin slurry was added to each of four tubes and washed three times with 1×TBS. Protein, 2 μg (234 nM) of E17K mutant, was preincubated for one hour at room temperature with either DMSO (no protein blank), anchor, biligand or triligand at 2.38 μM (10× in relation to protein) in 200 μL of 1×TBS. For the control, mutant PH Domain was incubated with 1×TBS and 1 μL […] to mimic the ligand conditions. These protein samples were then added to PIP3 agarose in a Spin-X tube and incubated at room temperature for two hours. The resin was washed three times with 1×TBS with 0.25% IGEPAL CA-630, spun out to dry completely, then denatured with 50 μL 3×SDS gel loading buffer for 10 min at 95° C. The gel loading buffer was spun out of the resin and detected via western blot as per the Streptavidin-Agarose Pulldowns. Inhibition was indicated by a decrease in the amount of PH Domain that was pulled down by the resin.
Expanded inhibition blots with either WT of E17K mutant protein were performed in a similar fashion. Twelve tubes of 20 μL of PIP3 agarose were washed three times with 1×TBS. 2 μg of either wildtype or mutant PH Domain-GFP protein (234 nM) in 200 uL 1×TBS were preincubated for 30 minutes with differing concentrations of triligand: 0.1 eq (23.4 nM), 1 eq (234 nM), 10 eq (2.34 μM), 100 eq (23.4 μM), and 1000 eq (234 μM). The protein and triligand solutions were then incubated with the PIP3 resin for 2 hours at room temperature. The resins were washed, eluted, and blotted as per all PH Domain western blots.

[7] = streptavidin agarose, 1xTBS, western blot band size
[8] = 6 ug GST-tagged PHD, 1% serum in 1xTBS, western blot, listed as yleaf-yksy

T2 sequence (P31749 1-124): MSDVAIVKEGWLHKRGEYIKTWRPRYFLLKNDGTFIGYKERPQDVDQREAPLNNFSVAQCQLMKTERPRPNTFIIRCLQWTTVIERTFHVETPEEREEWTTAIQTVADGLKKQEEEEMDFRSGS
T1 sequence (P31749 1-124 E17K): as the sequence (P31749 1-124) above, with E17K counted along it
T6 sequence (P31749 5-108 E17K limits assumed): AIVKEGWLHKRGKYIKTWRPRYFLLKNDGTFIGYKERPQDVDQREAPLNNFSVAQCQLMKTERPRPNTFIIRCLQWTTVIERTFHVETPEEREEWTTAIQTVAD
T5 sequence (P31749 1-124): as the sequence (P31749 1-124) above
T4 sequence (P31749 1-124 E17K): as the sequence (P31749 1-124) above, with E17K counted along it

Compound | pulldown of E17K mutant PH Domain by biotinylated anchor candidates [1, 7] | pulldown of wildtype PH Domain by biotinylated anchor candidates [2, 7] | amount of E17K 33-mer fragment pulled down (HPLC peak) [3] | change in binding affinity for the E17K protein versus the preceding ligand (ELISA) [4] | change in binding affinity for the WT protein versus the preceding ligand (ELISA) [5] | inhibition of E17K PH Domain binding to PIP3-coated resin [6] | inhibition of E17K PH Domain binding to PIP3-coated resin ([6]; listed as biligand 7) | pulldown of E17K GST-PHD by biligand candidates [1, 8] | pulldown of WT GST-PHD by biligand candidates [2, 8]
eefef ([dE][dE][dF][dE][dF]) [off-target control] | the least pulldown for the mutant protein | the only pulldown of the wildtype protein | much less pull down than the yleaf |  |  |  |  |  | 
CC(=O)N[C@@H](CCCCn1cc(C[C@@H](NC(=O)[C@@H](Cc2ccccc2)NC(=O)[C@@H](C)NC(=O)[C@@H](CCC(=O)O)NC(=O)[C@@H](CC(C)C)NC(=O)[C@@H](Cc2ccc(O)cc2)NC(=O)CCOCCOCCOCCOCCOCCOCCNC(=O)CCCC[C@@H]2SC[C@@H]3NC(=O)N[C@@H]32)C(=O)O)nn1)C(=O)N[C@H](Cc1ccc(O)cc1)C(=O)N[C@H](CCCCN)C(=O)N[C@H](CO)C(=O)N[C@H](Cc1ccc(O)cc1)C(N)=O [biligand] (I: {Biotin-PEG6}-[dY][dL][dE][dA][dF][dPra]-OH / II: Ac-[Lys(N3)][dY][dK][dS][dY]-NH2; triazole I:6-II:1) |  |  |  | an increase in affinity for the E17K mutant protein | an even larger increase in affinity for the WT protein | exhibited the ability to block the PHD-PIP3 interaction | decreased binding of the protein | the greatest signal in binding the E17K protein; also recorded: the highest signal for the E17K protein | the lowest in binding the WT protein; also recorded: the lowest off-target signal to the WT protein
